Experimental data as given in BindingDB's records for doi:10.1016/s0960-894x(02)00455-9 (Fukui Research Institute, 2002).
pIC50: −log10 of the molar value.

Experiments:
[1] = target: Nitric oxide synthase, inducible (Homo sapiens, UniProt P35228); test: ChEBML_89186
Description: Concentration required to inhibit Inducible nitric oxide synthase over expressed in A549 cells

[2] = target: T1, Nitric oxide synthase, endothelial (Homo sapiens, UniProt P29474); test: ChEBML_64984
T1 sequence (P29474 whole entry): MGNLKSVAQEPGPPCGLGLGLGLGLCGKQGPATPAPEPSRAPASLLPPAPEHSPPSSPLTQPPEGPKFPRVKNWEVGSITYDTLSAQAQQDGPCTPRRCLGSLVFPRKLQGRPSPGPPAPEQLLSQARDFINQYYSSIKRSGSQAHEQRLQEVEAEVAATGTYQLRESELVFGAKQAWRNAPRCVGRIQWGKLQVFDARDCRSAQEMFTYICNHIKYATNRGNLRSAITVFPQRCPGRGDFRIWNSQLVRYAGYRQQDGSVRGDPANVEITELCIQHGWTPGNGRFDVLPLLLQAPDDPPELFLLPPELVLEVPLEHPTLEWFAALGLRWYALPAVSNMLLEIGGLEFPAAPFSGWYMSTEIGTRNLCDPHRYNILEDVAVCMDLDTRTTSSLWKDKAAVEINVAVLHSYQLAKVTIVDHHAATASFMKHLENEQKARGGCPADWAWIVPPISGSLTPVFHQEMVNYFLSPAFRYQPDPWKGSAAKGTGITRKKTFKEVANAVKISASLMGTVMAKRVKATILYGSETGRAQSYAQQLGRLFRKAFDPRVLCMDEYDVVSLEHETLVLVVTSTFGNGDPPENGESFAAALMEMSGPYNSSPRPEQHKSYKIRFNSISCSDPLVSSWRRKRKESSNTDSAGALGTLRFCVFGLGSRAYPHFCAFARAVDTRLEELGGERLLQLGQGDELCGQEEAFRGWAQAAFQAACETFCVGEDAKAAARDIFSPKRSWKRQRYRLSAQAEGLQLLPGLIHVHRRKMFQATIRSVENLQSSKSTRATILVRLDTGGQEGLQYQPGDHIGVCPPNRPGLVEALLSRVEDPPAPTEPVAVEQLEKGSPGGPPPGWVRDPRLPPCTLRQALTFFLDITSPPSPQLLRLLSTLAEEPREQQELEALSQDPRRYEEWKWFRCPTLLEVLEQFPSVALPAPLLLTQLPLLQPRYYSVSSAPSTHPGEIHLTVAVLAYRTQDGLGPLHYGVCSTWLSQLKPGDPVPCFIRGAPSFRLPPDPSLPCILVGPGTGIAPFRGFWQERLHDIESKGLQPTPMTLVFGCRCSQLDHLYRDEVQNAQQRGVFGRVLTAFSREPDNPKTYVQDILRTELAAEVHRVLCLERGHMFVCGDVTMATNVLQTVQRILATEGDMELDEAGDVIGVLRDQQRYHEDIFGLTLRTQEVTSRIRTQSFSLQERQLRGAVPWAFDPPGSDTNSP
Description: Inhibition of human endothelial Nitric Oxide Synthase expressed in Sf-21 cells

Chain of Nitric oxide synthase, inducible (P35228 whole entry): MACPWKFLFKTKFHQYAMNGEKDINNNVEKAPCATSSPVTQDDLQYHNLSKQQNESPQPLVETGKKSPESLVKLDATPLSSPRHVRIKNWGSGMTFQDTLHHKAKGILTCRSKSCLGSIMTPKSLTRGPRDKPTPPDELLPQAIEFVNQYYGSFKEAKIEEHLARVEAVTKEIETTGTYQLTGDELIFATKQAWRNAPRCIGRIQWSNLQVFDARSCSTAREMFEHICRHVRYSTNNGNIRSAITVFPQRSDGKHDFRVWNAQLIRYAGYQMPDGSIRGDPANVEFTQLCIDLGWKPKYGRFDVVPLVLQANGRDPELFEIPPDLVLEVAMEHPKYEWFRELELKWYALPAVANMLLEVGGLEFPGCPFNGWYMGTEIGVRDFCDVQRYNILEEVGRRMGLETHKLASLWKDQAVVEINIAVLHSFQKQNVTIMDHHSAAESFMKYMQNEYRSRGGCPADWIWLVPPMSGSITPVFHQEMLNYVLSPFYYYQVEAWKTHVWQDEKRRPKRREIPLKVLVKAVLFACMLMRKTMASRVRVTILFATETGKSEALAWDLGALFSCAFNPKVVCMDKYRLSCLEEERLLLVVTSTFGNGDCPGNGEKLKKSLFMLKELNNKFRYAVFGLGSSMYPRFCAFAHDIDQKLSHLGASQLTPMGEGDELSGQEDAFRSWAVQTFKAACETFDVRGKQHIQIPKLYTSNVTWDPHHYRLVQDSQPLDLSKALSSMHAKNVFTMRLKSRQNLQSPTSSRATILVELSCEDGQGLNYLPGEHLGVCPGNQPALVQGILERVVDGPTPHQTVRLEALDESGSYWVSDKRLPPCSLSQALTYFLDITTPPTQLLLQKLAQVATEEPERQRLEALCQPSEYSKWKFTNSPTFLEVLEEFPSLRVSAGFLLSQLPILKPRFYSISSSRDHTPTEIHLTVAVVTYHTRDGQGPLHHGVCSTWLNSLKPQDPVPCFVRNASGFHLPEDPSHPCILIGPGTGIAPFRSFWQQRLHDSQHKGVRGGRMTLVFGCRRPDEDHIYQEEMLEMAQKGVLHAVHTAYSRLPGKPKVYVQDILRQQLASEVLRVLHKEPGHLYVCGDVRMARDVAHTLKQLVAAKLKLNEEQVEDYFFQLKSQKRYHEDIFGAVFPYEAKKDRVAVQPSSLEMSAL

pIC50 [1]: 6.15
pIC50 [2]: 6.36
Structure (SMILES): CC1=CC(N)=NCC1
